Results on five molecules are retold here after EP4640678A1, “NOVEL OXO-PYRIDINE COMPOUND, PREPARATION METHOD THEREFOR, AND USE THEREOF” (Chengdu Shibeikang Biomedical Technology Co., Ltd., priority 2022, dated 2024).

A short description of data set [1]: Study of pharmacokinetics in rats. Conditions: rat, po; male SD rats, intragastrical gavage, 30 mg/kg, plasma. Type of data set: in vivo. The procedure: Each group was administered via intragastrical gavage at a dose of 30 mg/kg.
About 0.5 mL of blood was collected, placed in an EDTA-K2 tube, centrifuged to separate plasma, and stored at -80°C. The drug plasma concentration was measured using a liquid chromatography-tandem mass spectrometry analysis system (LC-MS/MS), and pharmacokinetic parameters, such as AUC0-t, Cmax, Tmax and t1/2, were calculated based on the drug plasma concentration data using DAS 2.0 software.

Data set [2] concerns human plasma. Nature of the data set: determination of in-vitro anticoagulant effect in human plasma (APTT). Conditions: for APTT prolongation rate (%): healthy human plasma, 37°C for 3 min; for EC150: estimated from the APTT test results in human plasma. Format: biochemical. The method, then:
After centrifugation, the plasma sample was pipetted and frozen (-80°C) for later use.
A proper amount of a compound was weighed and prepared into a 10-100 mM stock solution using 100% of DMSO (the specific concentration of the stock solution was determined based on the properties of the compound); and then working solutions with various concentrations (specifically: 1 µM, 3 µM and 10 µM, respectively) were prepared from the stock solution using the healthy human plasma as a solution and thoroughly mixed. After incubation at 37°C for 3 min, the sample was placed on an instrument (model: CS-2000I) to determine APTT.
GraphPad Prism software was used for analysis to calculate the APTT prolongation rate at each concentration.

Data set [3] in a line: Effect of continuous in-vivo administration on general condition and food intake of rats. Conditions: 500 mg/kg PO once a day for 14 days, within 24 hours after the last administration; for food intake compared with the blank group: SD rats. The source says: Each group had 10 rats, equally distributed by gender. The rats received drug administrations via oral gavage once a day for 14 consecutive days, following the administration regimen outlined in the table below. The blank group was given an equal volume of a vehicle. […] Table 4 Continuous administration regimen

The target of data set [4] is human FXla (Homo sapiens, UniProt P03951). Nature of the data set: Activity assay of coagulation factor FXla inhibitor (S-2366 substrate, OD405nm). Type of data set: biochemical. The conditions noted are these: 5 concentrations 200 nM to 0.32 nM, 0.8 nM (2X) human FXla working solution. The text has this:
X: log value of compound concentration; Y: inhibition rate (%).

Sequence of human FXla (P03951 388-625 limits assumed): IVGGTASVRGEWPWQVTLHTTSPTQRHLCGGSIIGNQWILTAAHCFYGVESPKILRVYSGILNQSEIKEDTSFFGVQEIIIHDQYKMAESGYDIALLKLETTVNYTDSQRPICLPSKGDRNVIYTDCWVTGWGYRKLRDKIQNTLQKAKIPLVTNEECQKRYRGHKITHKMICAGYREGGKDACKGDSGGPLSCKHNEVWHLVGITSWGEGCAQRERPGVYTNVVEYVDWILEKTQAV
Sequence of human FXla (P03951 19-387 partner limits assumed): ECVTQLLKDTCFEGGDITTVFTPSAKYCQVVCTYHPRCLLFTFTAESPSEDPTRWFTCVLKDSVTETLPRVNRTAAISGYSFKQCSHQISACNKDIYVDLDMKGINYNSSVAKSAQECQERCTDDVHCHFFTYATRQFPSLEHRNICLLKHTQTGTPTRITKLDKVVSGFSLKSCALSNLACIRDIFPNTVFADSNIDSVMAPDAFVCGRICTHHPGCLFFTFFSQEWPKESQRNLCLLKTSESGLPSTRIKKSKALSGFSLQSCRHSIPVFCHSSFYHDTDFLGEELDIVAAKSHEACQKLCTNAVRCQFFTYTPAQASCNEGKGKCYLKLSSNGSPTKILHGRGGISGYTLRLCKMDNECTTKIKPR

By AUC(0-t) is commonly meant exposure summed from dosing to a finite time, without extrapolation to infinity. Higher therefore signals high exposure. The Cmax is the peak of the concentration-time curve. Broadly, the Tmax is the time at which the peak concentration occurs. A word on the half-life: it is the time needed for the level to fall by half in the phase considered. As usually defined, the IC50 is the concentration that gives 50% inhibition. Lower therefore signals inhibition by little substance. For `CC[C@@H](C(=O)Nc1ccc(C(=O)O)c(Cl)c1)n1cc(OC)c(-c2cc(Cl)ccc2-n2cc(C(F)(F)F)nn2)cc1=O` [Compound 2, (S)-2-chloro-4-(2-(4-(5-chloro-2-(4-(trifluoromethyl)-1H-1,2,3-triazol-1-yl)phenyl)-5-methoxy-2-oxopyridin-1(2H)-yl)butanamido)benzoic acid], in data set [1], the AUC(0-t) worked out at 85.9 µg·h/mL, the Cmax amounted to 6740 ng/mL, the Tmax was 3.94 h and the half-life was 7.75 h. Further, in data set [2] (3 µM), the “APTT prolongation rate (%)” value came out at 88.9%. In addition, the “APTT prolongation rate (%)” value in data set [2] (10 µM) turned out to be 124.8%. Further, the EC150 result in data set [2] is reported as “less than 1 µM”. Moreover, in data set [3], the “Food intake (g, mean±SD)” value is 27.22 ± 1.33 g and the “food intake compared with the blank group” value is “essentially the same food intake as the blank group”. Also, in data set [4], the midpoint of inhibition, the IC50, lay at 0.91 nM.

For `CC[C@@H](C(=O)Nc1ccc(C(=O)O)c(OC)c1)n1cc(OC)c(-c2cc(Cl)ccc2-n2cc(C(F)(F)F)nn2)cc1=O` [Compound 6, (S)-4-(2-(4-(5-chloro-2-(4-(trifluoromethyl)-1H-1,2,3-triazol-1-yl)phenyl)-5-methoxy-2-oxopyridin-1(2H)-yl)butanamido)-2-methoxybenzoic acid], in data set [1], the AUC(0-t) stood at 89.8 µg·h/mL, the Cmax amounted to 6440 ng/mL, the Tmax was found to be 4.1 h and the half-life was 7.08 h. Besides, in data set [2] (3 µM), the “APTT prolongation rate (%)” value was determined as 78.0%. Moreover, the “APTT prolongation rate (%)” value in data set [2] (10 µM) is recorded as 135.1%. Further, in data set [2], the EC150 entry is reported as “less than 1 µM”. The same molecule displayed an IC50 in data set [4] of 0.96 nM.

Take `[2H]C([2H])([2H])Oc1cn([C@@H](CC)C(=O)Nc2ccc(C(=O)NC)c(F)c2)c(=O)cc1-c1cc(Cl)ccc1-n1cc(C(F)(F)F)nn1` [Compound 25, (S)-4-(2-(4-(5-chloro-2-(4-(trifluoromethyl)-1H-1,2,3-triazol-1-yl)phenyl)-5-(methoxy-d3)-2-oxopyridin-1(2H)-yl)butanamido)-2-fluoro-N-methylbenzamide]: in data set [1], the AUC(0-t) was 159 µg·h/mL, the Cmax was found to be 26500 ng/mL, the Tmax came to 2.3 h and the half-life is 1.9 h. Moreover, in data set [2] (3 µM), the “APTT prolongation rate (%)” value was determined as 76.7%. In addition, the “APTT prolongation rate (%)” value in data set [2] (10 µM) worked out at 158.5%. Further, the EC150 result in data set [2] was “less than 1 µM”. In data set [3], the “Food intake (g, mean±SD)” value came to 27.00 ± 1.42 g and the “food intake compared with the blank group” value was “essentially the same food intake as the blank group”. This molecule yielded an IC50 in data set [4] of 1.87 nM.

For the molecule `[2H]C([2H])([2H])NC(=O)c1ccc(NC(=O)[C@H](CC)n2cc(OC)c(-c3cc(Cl)ccc3-n3cc(C(F)(F)F)nn3)cc2=O)cc1F` [Compound 26, (S)-4-(2-(4-(5-chloro-2-(4-(trifluoromethyl)-1H-1,2,3-triazol-1-yl)phenyl)-5-(methoxy)-2-oxopyridin-1(2H)-yl)butanamido)-2-fluoro-N-(methyl-d3)benzamide], in data set [1], the AUC(0-t) came to 129 µg·h/mL, the Cmax came to 21000 ng/mL, the Tmax came out at 2.7 h and the half-life is 3.33 h. Besides, the “APTT prolongation rate (%)” value in data set [2] (3 µM) was 78.3%. Moreover, the “APTT prolongation rate (%)” value in data set [2] (10 µM) is on record as 159.5%. Further, the EC150 result in data set [2] is “less than 1 µM”. In addition, in data set [3], the “Food intake (g, mean±SD)” value amounted to 26.49 ± 1.21 g and the “food intake compared with the blank group” value is “essentially the same food intake as the blank group”. For the same molecule, the IC50 in data set [4] was 1.15 nM.

Consider `[2H]C([2H])([2H])NC(=O)c1ccc(NC(=O)[C@H](CC)n2cc(OC([2H])([2H])[2H])c(-c3cc(Cl)ccc3-n3cc(C(F)(F)F)nn3)cc2=O)cc1F` [Compound 27, (S)-4-(2-(4-(5-chloro-2-(4-(trifluoromethyl)-1H-1,2,3-triazol-1-yl)phenyl)-5-(methoxy-d3)-2-oxopyridin-1(2H)-yl)butanamido)-2-fluoro-N-(methyl-d3)benzamide], for which, in data set [1], the exposure AUC(0-t) worked out at 291 µg·h/mL, the Cmax is 27200 ng/mL, the Tmax was determined as 4.43 h and the half-life was 4.01 h. The “APTT prolongation rate (%)” value in data set [2] (3 µM) stood at 79.7%. Also, in data set [2] (10 µM), the “APTT prolongation rate (%)” value was 142.5%. Moreover, the EC150 entry in data set [2] is on record as “less than 1 µM”. Further, in data set [3], the “Food intake (g, mean±SD)” value came out at 27.08 ± 1.19 g and the “food intake compared with the blank group” value is recorded as “essentially the same food intake as the blank group”. In addition, the IC50 in data set [4] amounted to 2.98 nM.
